Values of other authors in patent US20040048805A1, “Antilipemic agents” (priority 2003, published 2004).

Test system: HMG-CoA reductase
Conditions: oral administration to rabbits; Arterioscler Thromb Vasc Biol. 1998; 18: 1304

CCC(CC)CC(=O)c1c(C(=O)OC)c(-c2ccc(OC)c(OC)c2)c2c(OC)c(OC)c(OC)cc2c1O [compound A, methyl 1-(3,4-dimethoxyphenyl)-3-(3-ethylvaleryl)-4-hydroxy-6,7,8-trimethoxy-2-naphtoate]
HMG-CoA reductase activity in the liver: increased the HMG-CoA reductase activity in the liver
